Three compounds from patent publication US7094602B2, “Method for cell culture” (Fuji Photo Film Co, Ltd., priority 2002, dated 2006) can be followed below.

One data set relates to CHL cells. In words: Influence of chelating agent on cultured cells (Example 5). It counts as cell-based, Chinese Hamster. The following applies: cultured two days at 37° C. in the medium, 1.5 mM EDTA, GEDTA, DTPA, EDTPO, 3 g/l HMPA, 3 mM HEDP. How it is done:
CHL cells cultured beforehand were collected by trypsinization, and the cell density was adjusted to 50000 cells/ml. This cell suspension was inoculated on a polystyrene cell culture dish at a cell number of 10000 cells/cm^2, and each of the following media was added. Then, the cells were cultured at 37° C. for two days by using a CO2 incubator. The results of evaluation of stimulative property on the cells based on morphology and proliferation property of the cultured cells are shown in Table 3. The results are represented by using the result obtained for the cells cultured with the medium a mention d in the table as a standard. […] Eagle's minimum medium (MEM) • Medium b: […] MEM added with 1.5 mM diethylenetriamine-N,N,N′,N,N-pentaacetic acid (DTPA) • Medium e: MEM added with 3 g/l of sodium hexametaphosphate (HMPA) • Medium f: […] MEM added with 1.5 mM ethylenediamine-N,N,N′,N′-tetrakis(methylenephosphoric acid) (EDTPO) As for the media b to f, pH was adjusted to that of the medium a with NaOH or HCl after the chemicals were added.

The subject of data set [1] is CHL (Chinese Hamster Lung Cell). In words: Detachment of cultured cell layer from carrier for cell culture (Example 2). It counts as cell-based. The following applies: time required to detach CHL cell layer from calcium alginate/collagen carrier on immersion; MEM with EDTA, 3 g/l HMPA or 3 mM HEDP. How it is done: • Used cell: CHL (Chinese Hamster Lung Cell) • Used medium: Eagle's minimum medium containing 10% bovine fetal serum Carrier for Cell Culture: The carrier for cell culture prepared in Example 1, adhered to bottom surfaces of polystyrene cell culture dishes with double-sided tapes, and a polystyrene cell culture dishes alone as a comparative example were subjected to UV sterilization or electron beam sterilization. The operation, wherein the medium was added to the dishes to immerse the carrier for cell cultures for 5 minutes and then the medium was exchanged, was repeated three times, and then the dishes were left overnight to allow the medium to infiltrate into the carriers for cell culture. The calls cultured beforehand were collected by trypsin treatment, and the cell density was adjusted to 50,000 cells/ml. After the medium in the cells and dishes was discarded, the cell suspension was inoculated into the dishes at a cell number of 10,000 cells/cm^2, and then the medium was added. Thereafter, the cells were cultured at 37° C. for two days by using a CO2 incubator. The samples obtained by the culture were immersed in each of the following seven kinds of detachment solutions and non-detachment solutions, and then the cell layers were pulled with a pair of tweezers to examine state of detachment of the cell layers from the carriers for cell culture. A period of time required for the detachment of each cell layer was measured. Then, the cell sheets detached with an immersion time in a detachment solution of 30 minutes was placed on a polystyrene cell culture dish, added with the medium and cultured at 37° C. for one day by using a CO2 incubator. The cells were stained with trypan blue and observed under an optical microscope. The use of detachment agents of the present invention provided favorable detachment characteristics, that is, high survival rate of the cells and non-stimulative property (i.e., no cell deformation due to stimulation) was successfully confirmed. […]

The test system is the same in data set [2]. It counts as cell-based. The following applies: cell layer transfer with weighting 0.8 g/cm^2, immersion 10 minutes, culture one day, immersion 20 minutes; for State of cells after detachment: Morphology of survived cells: optical microscope; for State of cells after detachment: Survival rate: trypan blue. The text has this: The samples obtained by the culture on the carriers for cell culture in Example 2 were taken out together with the carriers for cell culture, and placed on polystyrene cell culture dishes in such a manner that the cell layer surfaces contacted with the dishes, and foamed urethane filters having a thickness of 3 mm and stainless steel plates were placed thereon in this order. The weight of each stainless steel plate was adjusted so that the total weight including the weight of the urethane filter became 0.8 g/cm^2. Then, the samples were immersed in the detachment solution (iii), (iv) or (v) mentioned in Example 2 for 10 minutes, and after the solution was replaced with the medium, culture was performed at 37° C. for one day by using a CO2 incubator. The cultures were immersed in the same detachment solutions for 20 minutes, and then the carriers for cell culture were detached by pulling with a pair of tweezers. Then, the solutions were replaced with the medium, and culture was continued at 37° C. for one day by using a CO2 incubator. The cells were stained with trypan blue and then observed under an optical microscope. Favorable results were obtained with the detachment solutions of the present invention. In the sample where the weight was applied only by using the stainless steel plates without using the […] and the sample where the detachment solution (i) was used, the cells died during the transfer operation. Further, in the sample where the detachment solution (ii) was used, transfer was not successful.

The test system of data set [3] is HepG2 (human liver cancer derived cells) laminated on BRL (Buffalo Rat Liver 3A). In words: Lamination of cell layers, cytochrome P-450 3A metabolism of BFC to HFC (Example 4). The conditions noted are these: HepG2 layer transferred on BRL with the detachment solution; cultured 90 hours, BFC added, cultured two days. It is filed as cell-based. As to the method:
In the same manner as that of Example 2, HepG2 (human liver cancer derived cells) was cultured on the carrier for cell culture of Example 1, and BRL (Buffalo Rat Liver 3A, ATCC No. CRL 1442) was cultured on a polystyrene cell culture dish. Cell layers were transferred on the cells cultured on the dishes by using the detachment solution (v) mentioned in Example 2 in the same manner as that of Example 3 to obtain laminated cells.

For the compound `O=C(O)CN(CCN(CC(=O)O)CC(=O)O)CC(=O)O` [(iii) MEM + EDTA, EDTA], the “State of cells: Morphology” value in the data set on CHL cells is recorded as “X (30% or less of not rounded cells are indicated with X)”. The “State of cells: Proliferation rate” value with CHL cells (relative to medium a (MEM)) was “X (degradation to 70% or less is indicated with X)”. Further, in data set [1], the Detachment time stood at 15 min.
On to `O=P1([O-])OP(=O)([O-])OP(=O)([O-])OP(=O)([O-])OP(=O)([O-])OP(=O)([O-])O1.[Na+].[Na+].[Na+].[Na+].[Na+].[Na+]` [(iv) MEM + HMPA, sodium hexametaphosphate], for which, in data set [2], the “State of cells after detachment: Morphology of survived cells” value is on record as “Not deformed” and the “State of cells after detachment: Survival rate” value is reported as 90% or more. Moreover, the Detachment time in data set [1] came to 10 min.
In the case of `CC(O)(P(=O)(O)O)P(=O)(O)O` [(v) MEM + HEDP, 1-hydroxyethane-1,1-diphosphoric acid], the “HFC produced through metabolism by cytochrome P-450 3A in laminated cells (fluorescence microscope)” value in data set [3] was “Fluorescence derived from HFC was observed in the portions of HepG2”. Also, in data set [2], the “State of cells after detachment: Morphology of survived cells” value is “Not deformed” and the “State of cells after detachment: Survival rate” value is reported as 90% or more. Also, the Detachment time in data set [1] came to 20 min.
